# Experimental data published in PMC7893821, “A conserved PI(4,5)P2–binding domain is critical for immune regulatory function of DOCK8” (Life Science Alliance, 2021).
# Substitutions are numbered along the chain they refer to.
# Experiments:
# Assay in all cases: isothermal titration calorimetry
# Assay type in all cases: binding
# [1] = molecular target: T1, DOCK8 DHR-1 domain (Mus musculus, UniProt Q8C147)
# T1 construct: DHR-1 domain, residues 558-740, pGEX6P-1, E. coli ArcticExpress DE3; GST tag cut with PreScission for ITC, GST fusion kept in vesicle assays
# T1 sequence (Q8C147 558-740): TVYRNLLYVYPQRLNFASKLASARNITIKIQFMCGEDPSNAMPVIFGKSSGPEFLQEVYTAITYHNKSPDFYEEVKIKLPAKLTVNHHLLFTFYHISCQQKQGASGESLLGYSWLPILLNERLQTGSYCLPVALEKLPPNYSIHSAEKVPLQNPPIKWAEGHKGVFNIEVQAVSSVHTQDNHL
# [2] = molecular target: T2, DOCK8 DHR-1 domain (Mus musculus, UniProt Q8C147, R581A)
# T2 construct: DHR-1 domain, residues 558-740, pGEX6P-1, E. coli ArcticExpress DE3; GST tag cut with PreScission for ITC, GST fusion kept in vesicle assays
# T2 sequence (Q8C147 558-740 R581A): T1 sequence (Q8C147 558-740) with R24A
# [3] = molecular target: T3, DOCK8 DHR-1 domain (Mus musculus, UniProt Q8C147, K576A)
# T3 construct: DHR-1 domain, residues 558-740, pGEX6P-1, E. coli ArcticExpress DE3; GST tag cut with PreScission for ITC, GST fusion kept in vesicle assays
# T3 sequence (Q8C147 558-740 K576A): T1 sequence (Q8C147 558-740) with K19A
# Text: (§1) isothermal titration calorimetry on DOCK8 DHR-1 domain | Mutations R570A, K576A, and R581A led to two to threefold reduction in the binding affinity
# [4] = molecular target: T4, DOCK8 DHR-1 domain (Mus musculus, UniProt Q8C147, R570A)
# T4 construct: DHR-1 domain, residues 558-740, pGEX6P-1, E. coli ArcticExpress DE3; GST tag cut with PreScission for ITC, GST fusion kept in vesicle assays
# T4 sequence (Q8C147 558-740 R570A): T1 sequence (Q8C147 558-740) with R13A
# Text: as §1
# [5] = molecular target: T5, DOCK8 DHR-1 domain (Mus musculus, UniProt Q8C147, K576A/R581A); conditions: 20 mM Tris-HCl pH 8.0, 16 mM NaCl, 25 °C; GST tag removed
# T5 construct: DHR-1 domain, residues 558-740, pGEX6P-1, E. coli ArcticExpress DE3; GST tag cut with PreScission for ITC, GST fusion kept in vesicle assays
# T5 sequence (Q8C147 558-740 K576A/R581A): T1 sequence (Q8C147 558-740) with K19A, R24A
compound,measurement,setting,value
"CCCCCCCC(=O)OC[C@H](COP(=O)(O)O[C@H]1[C@H](O)[C@@H](OP(=O)(O)O)[C@H](OP(=O)(O)O)[C@@H](OP(=O)(O)O)[C@H]1O)OC(=O)CCCCCCC [diC8-PI(3,4,5)P3]",Kd,[1],26.9 ± 3 µM
"CCCCCCCC(=O)OC[C@H](COP(=O)(O)O[C@@H]1[C@H](O)[C@H](O)[C@@H](OP(=O)(O)O)[C@H](OP(=O)(O)O)[C@H]1O)OC(=O)CCCCCCC [diC8-PI(4,5)P2]",Kd,[2],64.2 ± 7.7 µM
same,Kd,[1],19.5 ± 3.7 µM
same,Kd,[3],37.1 ± 8 µM
same,Kd,[4],42.9 ± 3.1 µM
same,no binding detected,[5],"Consistently, no binding was observed for KARA mutant."
